{
  "source": "patent US10927107B2",
  "about": "“Phenyl [a]indole[2,3-g]quinolizine compounds, preparation method therefor, pharmaceutical composition, and applications thereof” (Shanghai Institute of Materia Medica, Chinese Academy of …, priority 2016, dated 2021)",
  "data": [
    {"test_system": "HepG2 cells", "test": "In vitro lipid-lowering activity: DiI-LDL uptake in HepG2 cells", "format": "cell-based", "conditions": "Homo sapiens, test compound 5 uM, 24 h, DiI-LDL 20 ug/ml, 3 h, FLU of sample group/FLU of blank group x100%, read-out: LDL uptake rate", "procedure": "HepG2 cells were inoculated in 24-well plates, cultured in DMEM containing 10% FBS for 24 h or 48 h, and then transferred to DMEM containing 2% defatted serum and cultivated for 24 h. The old culture solution was discarded and replaced with new 2% defatted serum DMEM, and a test compound (the working concentration of which is 5 uM, triplicate for each sample) was added and incubated for 24 h. The old culture solution was abandoned and DMEM containing DiI-LDL (20 ug/ml) was added (300 ul/per 24 wells), incubated for 3 h. DMEM containing DiI-LDL was discarded, and cells were rinsed twice with PBS containing 0.4% BSA, and 3 times with PBS to remove excess DiI-LDL. Isopropanol was added (500 ul/per well of a 24-well plate), and was kept in darkness. After shaken for 20 minutes, 200 ul of supernatant was sucked to a black fluorescent plate, and fluorescence intensity (FLU) was detected at excitation light 520 nm and emission light 578 nm. The experimental results were calculated: LDL uptake rate=(FLU value of sample group to be tested/FLU value of blank group)×100%.", "units": {"activity at 5 µM": "%"}, "values": [
      {"smiles": "COc1ccc2c(c1)c1c(n2CO)CN2CCc3cc(OC)c(OCc4ccccc4)cc3[C@H]2C1", "note": "[(R)-A1]", "activity at 5 µM": 185},
      {"smiles": "COc1ccc2c(c1)c1c(n2CO)CN2CCc3cc(OCc4ccccc4)c(OC)cc3[C@H]2C1", "note": "[(R)-A55]", "activity at 5 µM": 200},
      {"smiles": "COc1ccc2[nH]c3c(c2c1)C[C@@H]1c2cc(OCc4ccc(C(F)(F)F)cc4)c(OC)cc2CCN1C3", "note": "[(R)-C3]", "activity at 5 µM": 218},
      {"smiles": "COc1ccc2[nH]c3c(c2c1)C[C@@H]1c2cc(OC)c(OCc4ccc(C(F)(F)F)cc4)cc2CCN1C3", "note": "[(R)-C47, (R)-2,12-Dimethoxy-3-((4-(trifluoromethyl)benzyl)oxy)-5,6,8,9,14,14a-hexahydroindolo[3′,2′:4,5]pyrido[2,1-a]isoquinoline]", "activity at 5 µM": 292},
      {"smiles": "COc1ccc2c(c1)c1c(n2CO)CN2CCc3cc(OC)c(OCc4ccccc4)cc3[C@@H]2C1", "note": "[(S)-A1]", "activity at 5 µM": 116},
      {"smiles": "COc1ccc2c(c1)c1c(n2CO)CN2CCc3cc(OCc4ccccc4)c(OC)cc3[C@@H]2C1", "note": "[(S)-A55]", "activity at 5 µM": 120},
      {"smiles": "COc1ccc2[nH]c3c(c2c1)C[C@H]1c2cc(OCc4ccc(C(F)(F)F)cc4)c(OC)cc2CCN1C3", "note": "[(S)-C3]", "activity at 5 µM": 111},
      {"smiles": "COc1ccc2[nH]c3c(c2c1)C[C@H]1c2cc(OC)c(OCc4ccc(C(F)(F)F)cc4)cc2CCN1C3", "note": "[(S)-C47, (S)-2,12-Dimethoxy-3-((4-(trifluoromethyl)benzyl)oxo)-5,6,8,9,14,14a-hexahydroindolo[3′,2′:4,5]pyrido[2,1-a]isoquinoline]", "activity at 5 µM": 273},
      {"smiles": "COc1ccc2c(c1)c1c(n2CO)CN2CCc3cc(OC)c(OCc4ccccc4F)cc3C2C1", "note": "(stereo not shown) [Example A9, (2-((2-fluorobenzyl)oxy)-3,12-dimethoxy-5,6,14,14a-tetrahydroindolo[3′,2′:4,5]pyridine[2,1-a]isoquinoline-9(8H)-yl)methanol]", "activity at 5 µM": 113},
      {"smiles": "COc1cc2c(cc1OCc1ccccc1F)C1Cc3c(n(CO)c4ccccc34)CN1CC2", "note": "(stereo not shown) [Example A10, (2-((2-fluorobenzyl)oxy)-3-methoxy-5,6,14,14a-tetrahydroindolo[3′,2′:4,5]pyridine[2,1-a]isoquinoline-9(8H)-yl)methanol]", "activity at 5 µM": 108},
      {"smiles": "COc1cccc(COc2cc3c(cc2OC)CCN2Cc4c(c5cc(OC)ccc5n4CO)CC32)c1", "note": "(stereo not shown) [Example A13, (3,12-Dimethoxy-2-((3-methoxybenzyl)oxo)-5,6,14,14a-tetrahydroindolo[3′,2′:4,5]pyridine[2,1-a]isoquinoline-9(8H)-yl)methanol]", "activity at 5 µM": 107},
      {"smiles": "COc1ccc2c(c1)c1c(n2CO)CN2CCc3cc(OC)c(OCc4ccc(C)cc4)cc3C2C1", "note": "(stereo not shown) [Example A15, (3,12-Dimethoxy-2-((4-methylbenzyl)oxy)-5,6,14,14a-tetrahydroindolo[3′,2′:4,5]pyridine[2,1-a]isoquinoline-9(8H)-yl)methanol]", "activity at 5 µM": 115},
      {"smiles": "COc1ccc2c(c1)c1c(n2CO)CN2CCc3cc(OC)c(OC)cc3C2C1", "note": "(stereo not shown) [Example A37, (2,3,12-Trimethoxy-5,6,14,14a-tetrahydroindolo[3′,2′:4,5]pyridine[2,1-a]isoquinoline-9(8H)-yl)methanol]", "activity at 5 µM": 99.1},
      {"smiles": "COc1cc2c(cc1OC)C1Cc3c(n(CO)c4ccccc34)CN1CC2", "note": "(stereo not shown) [Example A38, (2,3-dimethoxy-5,6,14,14a-tetrahydroindolo[3′,2′:4,5]pyridine[2,1-a]isoquinoline-9(8H)-yl)methanol]", "activity at 5 µM": 123},
      {"smiles": "COc1ccc2c(c1)c1c(n2CO)CN2CCc3cc(OC)c(OCC(F)(F)F)cc3C2C1", "note": "(stereo not shown) [Example A39, (3,12-Dimethoxy-2-(2,2,2-trifluoroethoxy)-5,6,14,14a-tetrahydroindolo[3′,2′:4,5]pyridine[2,1-a]isoquinoline-9(8H)-yl)methanol]", "activity at 5 µM": 147},
      {"smiles": "COc1ccc2c(c1)c1c(n2CO)CN2CCc3cc(OCc4ccc(C(F)(F)F)cc4)c(OC)cc3C2C1", "note": "(stereo not shown) [Example A57, (2,12-Dimethoxy-3-((4-(trifluoromethyl)benzyl)oxy)-5,6,14,14a-tetrahydroindolo[3′,2′:4,5]pyridine[2,1-a]isoquinoline-9(8H)-yl)methanol]", "activity at 5 µM": 112},
      {"smiles": "COc1cc2c(cc1OCc1ccc(F)cc1)CCN1Cc3c(c4ccccc4n3CO)CC21", "note": "(stereo not shown) [Example A60]", "activity at 5 µM": 108},
      {"smiles": "COc1cc2c(cc1OCc1ccc(C)cc1)CCN1Cc3c(c4ccccc4n3CO)CC21", "note": "(stereo not shown) [Example A70, (2-methoxy-3-((4-methylbenzyl)oxy)-5,6,14,14a-tetrahydroindolo[3′,2′:4,5]pyridine[2,1-a]isoquinoline-9(8H)-yl)methanol]", "activity at 5 µM": 80.6},
      {"smiles": "OCn1c2c(c3ccccc31)CC1c3cc4c(cc3CCN1C2)OCO4", "note": "(stereo not shown) [Example A109, (5,6,14,14a-tetrahydro-[1,3]dioxazo[4,5-g]indolo[3′,2′:4,5]pyridine[2,1-a]isoquinoline-9(8H)-yl)methanol]", "activity at 5 µM": 100},
      {"smiles": "COc1ccc2c(c1)c1c(n2CO)CN2CCc3cc(OCc4cccc(C)c4)c(OC)cc3C2C1", "note": "(stereo not shown) [Example A142, (2,12-Dimethoxy-3-((3-methylbenzyl)oxo)-5,6,14,14a-tetrahydroindolo[3′,2′:4,5]pyridine[2,1-a]isoquinoline-9(8H)-yl)methanol]", "activity at 5 µM": 108},
      {"smiles": "COc1cc2c(cc1OCc1cccc(C)c1)CCN1Cc3c(c4ccccc4n3CO)CC21", "note": "(stereo not shown) [Example A143, (2-methoxy-3-((3-methylbenzyl)oxo)-5,6,14,14a-tetrahydroindolo[3′,2′:4,5]pyridine[2,1-a]isoquinoline-9(8H)-yl)methanol]", "activity at 5 µM": 91.1},
      {"smiles": "COc1cc2c(cc1OCc1ccc(F)cc1)C1Cc3c([nH]c4ccccc34)C(c3ccc(F)cc3)N1CC2", "note": "(stereo not shown) [Example B6, 2-((4-fluorobenzyl)oxo)-8-(4-fluorophenyl)-3-methoxy-5,6,8,9,14,14a-hexahydroindole[3′,2′: 4,5]pyridine[2,1-a]isoquinoline]", "activity at 5 µM": 108},
      {"smiles": "COc1ccc2[nH]c3c(c2c1)CC1c2cc(OCc4ccccc4F)c(OC)cc2CCN1C3c1ccc(F)cc1", "note": "(stereo not shown) [Example B9, 2-((2-fluorobenzyl)oxo)-8-(4-fluorophenyl)-3,12-dimethoxy-5,6,8,9,14,14a-hexahydroindole[3′,2′:4,5]pyridine[2,1-a]isoquinoline]", "activity at 5 µM": 94.3},
      {"smiles": "COc1cc2c(cc1OCc1ccccc1F)C1Cc3c([nH]c4ccccc34)C(c3ccc(F)cc3)N1CC2", "note": "(stereo not shown) [Example B10, 2-((2-fluorobenzyl)oxo)-8-(4-fluorophenyl)-3-methoxy-5,6,8,9,14,14a-hexahydroindole[3′,2′: 4,5]pyridine[2,1-a]isoquinoline]", "activity at 5 µM": 108},
      {"smiles": "COc1cccc(COc2cc3c(cc2OC)CCN2C3Cc3c([nH]c4ccc(OC)cc34)C2c2ccc(F)cc2)c1", "note": "(stereo not shown) [Example B13, 8-(4-Fluorophenyl)-3,12-dimethoxy-2-((3-methoxybenzyl)oxo)-5,6,8,9,14,14a-hexahydroindolo[3′,2′:4,5]pyridine[2,1-a]isoquinoline]", "activity at 5 µM": 105},
      {"smiles": "COc1ccc2[nH]c3c(c2c1)CC1c2cc(OCc4ccc(C)cc4)c(OC)cc2CCN1C3c1ccc(F)cc1", "note": "(stereo not shown) [Example B15, 8-(4-Fluorophenyl)-3,12-dimethoxy-2-((4-methylbenzyl)oxo)-5,6,8,9,14,14a-hexahydroindolo[3′,2′:4,5]pyridine[2,1-a]isoquinoline]", "activity at 5 µM": 111},
      {"smiles": "COc1cc2c(cc1OCc1ccc(C)cc1)C1Cc3c([nH]c4ccccc34)C(c3ccc(F)cc3)N1CC2", "note": "(stereo not shown) [Example B16, 8-(4-Fluorophenyl)-3-methoxy-2-((4-methylbenzyl)oxo)-5,6,8,9,14,14a-hexahydroindolo[3′,2′:4,5]pyridine[2,1-a]isoquinoline]", "activity at 5 µM": 107},
      {"smiles": "COc1ccc2[nH]c3c(c2c1)CC1c2cc(OC)c(OCc4ccc(F)cc4)cc2CCN1C3c1ccc(F)cc1", "note": "(stereo not shown) [Example B59, 3-((4-fluorobenzyl)oxo)-8-(4-fluorophenyl)-2,12-dimethoxy-5,6,8,9,14,14a-hexahydroindole[3′,2′:4,5]pyridine[2,1-a]isoquinoline]", "activity at 5 µM": 109},
      {"smiles": "COc1cc2c(cc1OCc1ccc(F)cc1)CCN1C2Cc2c([nH]c3ccccc23)C1c1ccc(F)cc1", "note": "(stereo not shown) [Example B60, 3-((4-fluorobenzyl)oxo)-8-(4-fluorophenyl)-2-methoxy-5,6,8,9,14,14a-hexahydroindole[3′,2′: 4,5]pyridine[2,1-a]isoquinoline]", "activity at 5 µM": 114},
      {"smiles": "COc1ccc2[nH]c3c(c2c1)CC1c2cc(OC)c(OCc4cccc(F)c4)cc2CCN1C3c1ccc(F)cc1", "note": "(stereo not shown) [Example B61, 3-((3-fluorobenzyl)oxo)-8-(4-fluorophenyl)-2,12-dimethoxy-5,6,8,9,14,14a-hexahydroindole[3′,2′:4,5]pyridine[2,1-a]isoquinoline]", "activity at 5 µM": 116},
      {"smiles": "COc1ccc2[nH]c3c(c2c1)CC1c2cc(OC)c(OCc4cccc(F)c4)cc2CCN1C3", "note": "(stereo not shown) [Example C51, 3-((3-Fluorobenzyl)oxo)-2,12-dimethoxy-5,6,8,9,14,14a-hexahydroindole[3′,2′:4,5]pyridine[2,1-a]isoquinoline]", "activity at 5 µM": 192},
      {"smiles": "COc1cc2c(cc1OCc1ccccc1F)CCN1Cc3[nH]c4ccccc4c3CC21", "note": "(stereo not shown) [Example C54, 3-((2-fluorobenzyl)oxo)-2-methoxy-5,6,8,9,14,14a-hexahydroindole[3′,2′:4,5]pyridine[2,1-a]isoquinoline]", "activity at 5 µM": 110},
      {"smiles": "COc1cc2c(cc1OCc1ccc(C)cc1)CCN1Cc3[nH]c4ccccc4c3CC21", "note": "(stereo not shown) [Example C60]", "activity at 5 µM": 84.3},
      {"smiles": "COc1ccc2[nH]c3c(c2c1)CC1c2cc(OC)c(OCc4cccc(C)c4)cc2CCN1C3", "note": "(stereo not shown) [Example C106, 2,12-dimethoxy-3-((3-methylbenzyl)oxo)-5,6,8,9,14,14a-hexahydroindolo[3′,2′:4,5]pyridine[2,1-a]isoquinoline]", "activity at 5 µM": 111}
    ]}
  ]
}
